Columns and labels:
[1] = target: T1, PME1 (Homo sapiens, UniProt Q9Y570); test: EnPlex assay; format: biochemical; conditions: FP-biotin 1 μM, <5 = >50% inhibition at lowest dose 5 nM
T1 sequence (Q9Y570 1-386): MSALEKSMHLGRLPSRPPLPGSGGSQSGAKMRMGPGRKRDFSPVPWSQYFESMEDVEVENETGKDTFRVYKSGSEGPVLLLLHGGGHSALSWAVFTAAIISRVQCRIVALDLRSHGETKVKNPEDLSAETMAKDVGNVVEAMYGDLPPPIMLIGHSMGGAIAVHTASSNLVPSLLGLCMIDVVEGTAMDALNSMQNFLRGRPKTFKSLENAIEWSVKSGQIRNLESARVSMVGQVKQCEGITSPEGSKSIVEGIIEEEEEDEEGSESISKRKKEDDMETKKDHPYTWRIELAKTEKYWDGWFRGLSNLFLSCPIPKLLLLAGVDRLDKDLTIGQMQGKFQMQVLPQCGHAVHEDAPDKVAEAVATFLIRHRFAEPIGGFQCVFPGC

[2] = Oral glucose tolerance test; format: in vivo, C57BL/6 mice; conditions: mice, oral gavage 1 h before dextrose 5 g/kg; listed as ARI-2243
[3] = Adverse effects in mice; format: in vivo

Row | SMILES | IC50 [1] | Anti-hyperglycemic activity in oral glucose tolerance test [2] | Adverse effects in mice [3]
1 | COC(=O)N1C(=O)[C@](c2ccccc2)(C2CCCC2)N1C(=O)OC [ABL127] | 12 nM | – | –
2 | CC(N)C(=S)N1CCCC1B(O)O (stereo not drawn) [Compound 24, Ala-boroPro thioxoamide] | – | highly effective and essentially equal anti-hyperglycemic glycemic activity | no significant adverse effects
